Reference: PMC7822874, “Chemoprotective antimalarials identified through quantitative high-throughput screening of Plasmodium blood and liver stage parasites” (Scientific Reports, 2021)
Where two headings read alike, the source gives them in different places.

Tests used:
[1] = test system: T1, Plasmodium falciparum Dd2-attB (parental line), asexual blood stages; assay: microbe, parasite or virus in culture; set-up: species or system P. falciparum Dd2-attB in human erythrocytes; SYBR Green-I proliferation assay, Dd2-attB parental line, asexual blood stages; conditions: Plasmodium falciparum, DD2, Erythrocyte, 72 h, read-out: Calculated / Average Log AC50 (M), mean of replicates, 72 h (converted)
T1 construct: Dd2-attB, the isogenic parental line

[2] = in vitro; conditions: human, n = 1
[3] = test system: HepG2-A16-CD81EGFP cells; conditions: average of 2 wells; for HepG2 viability signal, 3 uM, repeat 2: nominal 3 uM (10 mM stock), 4.5 uM for 15 mM, 3.6 uM for 12 mM, 6 uM for 20 mM stock
[4] = test system: luciferase-expressing P. berghei liver stage parasites in HepG2 cells; assay: Inhibition of liver-stage development assay (ILSDA), Method 2 (WRAIR, 96-well); type: cell-based, Plasmodium berghei; conditions: for AC50: Plasmodium berghei, HepG2, Method 2; for Activity direction (Decrease / Inactive): P. berghei liver stage, Method 2, dose response
[5] = test system: P. berghei-ANKA-GFP-LucCON liver stage parasites in HepG2-A16-CD81EGFP cells; assay: P. berghei liver stage Pb-Luc assay, Method 1 (UCSD, 1536-well); type: cell-based, Plasmodium berghei; conditions: for activity at 1 µM / activity at 3 µM: 48 h, average of 2 wells, 1536-well plate; for activity at 1 µM: nominal 1 uM (10 mM stock), […] for 15 mM, 1.2 uM for 12 mM, 2 uM for 20 mM stock; for activity at 3 µM: nominal 3 uM (10 mM stock), 4.5 uM for 15 mM, 3.6 uM for 12 mM, 6 uM for 20 mM stock; for Max Resp (signal direction of the dose response): Decrease = decreasing P. berghei viability with dose, Increase = increasing signal, Inactive = no dose response
[6] = test system: Plasmodium falciparum Dd2 asexual blood stage parasites; assay: microbe, parasite or virus in culture; set-up: species or system Plasmodium falciparum Dd2 in human erythrocytes; single determination (one 11-point concentration-response curve); conditions: Plasmodium falciparum, DD2, Erythrocyte, 72 h; read-out: AC50
[7] = in vitro; conditions: human, HepG2-A16-CD81EGFP cells, uninfected
[8] = nominal 1 uM (10 mM stock), […] for 15 mM, 1.2 uM for 12 mM, 2 uM for 20 mM stock
[9] = Plasmodium berghei, repeat 1, read-out: Pb-Luc signal, 1 uM, repeat 1
[10] = Plasmodium berghei, repeat 2, read-out: Pb-Luc signal, 1 uM, repeat 2
[11] = Plasmodium berghei, repeat 3, read-out: Pb-Luc signal, 1 uM, repeat 3
[12] = Plasmodium berghei, repeat 1, read-out: Pb-Luc signal, 3 uM, repeat 1
[13] = Plasmodium berghei, repeat 2, read-out: Pb-Luc signal, 3 uM, repeat 2
[14] = Plasmodium berghei, repeat 3, read-out: Pb-Luc signal, 3 uM, repeat 3
[15] = Plasmodium berghei, Method 1, Hill fit, 50% of maximum activity response, read-out: AC50
[16] = Plasmodium berghei, Method 1, log10 of molar AC50 from Hill fit, read-out: Log AC50 (converted)

OCc1cn(Cc2ccc(O)c3ncccc23)cn1 [NCGC00183377-01]
AC50 [1]: 2.08e-05 M

Oc1ccc(CNc2ccccc2Br)c2cccnc12 [NCGC00184890-01]
AC50 [1]: 1.78e-05 M

CN1CCCC1CCOC(c1cc2nccc(C(=O)O)c2[nH]1)c1ccccc1Cl (stereo not drawn) [NCGC00421826-01]
AC50 [1]: 6.58e-06 M

O=C(O)c1ccnc2cc(C(OCCCN3CCCC3)c3ccccc3Cl)[nH]c12 (stereo not drawn) [NCGC00421827-01]
AC50 [1]: 4.48e-06 M

O=C(O)c1ccc(O)c2ncc(N3CCCC3)cc12 [NCGC00189500-01]
AC50 [1]: 1.72e-05 M

O=C(O)c1ccnc(-n2ncc(C(OCCN3CCCCC3)c3ccccc3)c2-c2ccccc2)c1 (stereo not drawn) [NCGC00488202-01]
AC50 [1]: 2.12e-05 M

O=C(O)c1ccnc(-n2ncc(C(OCCN3CCCCC3)c3ccccc3Cl)c2-c2ccccc2Cl)c1 (stereo not drawn) [NCGC00487469-01]
AC50 [1]: 1.85e-05 M

CCc1c(C)[nH]c2c(-c3cnn(-c4cc(CO)ccn4)c3)cnn2c1=O [NCGC00387307-02]
AC50 [1]: 4.84e-08 M

C=CC(=O)N1CCCN(c2cc(NCCC(=O)O)nc(-c3ccccn3)n2)CC1 [NCGC00420854-01]
AC50 [1]: 2.16e-05 M

Cc1cccc(C)c1Nc1c(-c2cccs2)nc2ncccn12 [NCGC00107923-03]
AC50 [1]: 5.03e-07 M

CC(C)=C(C#N)C(=O)N1CCCN(c2cc(NCCC(=O)O)nc(-c3ccccn3)n2)CC1 [NCGC00420877-01]
AC50 [1]: 1.59e-08 M

O=C(O)c1ccc(O)c2ncc(-c3cccc(N4CCOCC4)c3)cc12 [NCGC00241753-01]
AC50 [1]: 2.16e-05 M

O=C(O)c1ccc(O)c2ncc(-c3n[nH]nc3-c3ccccc3)cc12 [NCGC00241764-02]
AC50 [1]: 4.66e-06 M

CN1CCCC1CCOC(c1cccc(-c2ccccc2)c1)c1cc2nccc(C(=O)O)c2s1 (stereo not drawn) [NCGC00481397-01]
AC50 [1]: 1.42e-05 M

CN1CCC(N2CCCC(CNC(=O)c3cccc(-c4cc(O)c5ncccc5c4)c3)C2)CC1 (stereo not drawn) [NCGC00247748-01]
AC50 [1]: 1.85e-05 M

COC(=O)CCNc1cc(N2CCCN(C(=O)C(C#N)=C(C)C)CC2)nc(-c2ccccn2)n1 [NCGC00420856-01]
AC50 [1]: 1.42e-05 M

CN1CCCCC1CCOC(c1cc2nccc(C(=O)O)c2[nH]1)c1ccccc1Cl (stereo not drawn) [NCGC00479006-01]
AC50 [1]: 1.93e-05 M

Cc1nn2c(c1-c1ccnn1C(C)C)N(CC1CC1)CCC2 [NCGC00499721-01]
AC50 [1]: 1.59e-05 M

Cn1cnc(-c2nccc3c(O)nc(OCCCC(F)(F)F)nc23)c1 [NCGC00381768-02]
AC50 [1]: 2.08e-05 M

CC1=C[C@@H](CNCc2cccnc2)[C@H](C(C)C)C[C@H]1Cc1nnc(-c2ccc([N+](=O)[O-])cc2)o1 [NCGC00394797-01]
CC50 at 48 h ([2]; hepg2): 24.3 µM | HepG2 viability signal, 1 uM, repeat 1 ([3]; nominal 1 uM (10 mM stock), […] for 15 mM, 1.2 uM for 12 mM, 2 uM for 20 mM stock, repeat 1): 104.31% | HepG2 viability signal, 1 uM, repeat 2 [3, 8]: 102.23% | HepG2 viability signal, 3 uM, repeat 2 [3]: 86.98% | Max Resp (signal direction of the dose response) ([4]; Method 2, Decrease = decreasing P. berghei viability with dose, Increase = increasing signal, Inactive = no dose response): Decrease | AC50 ([4]; Hill fit, 50% of maximum activity response, read-out: AC50): 0.562 µM | AC50 ([4]; log10 of molar AC50 from Hill fit, read-out: Log AC50 (converted)): 0.562 µM | activity at 1 µM [5, 9]: 72% | activity at 1 µM [5, 10]: 75% | activity at 1 µM [5, 11]: 71.6% | activity at 3 µM [5, 12]: 23.8% | activity at 3 µM [5, 13]: 19.3% | activity at 3 µM [5, 14]: 23.7% | AC50 [5, 15]: 1.58 µM | AC50 [5, 16]: 1.58 µM | AC50 [6]: 5.31 µM

Cc1nn2c(c1-c1ccccc1-c1ccccc1)N(CCC(C)C)CCC2 [NCGC00420437-01]
CC50 at 48 h ([2]; HepG2 cells): 19.8 µM | HepG2 viability signal, 1 uM, repeat 2 [3, 8]: 106.23% | HepG2 viability signal, 3 uM, repeat 2 [3]: 19.77% | viability at 48 h, 1 µM [7]: 104% | viability at 48 h, 3 µM [7]: 10.8% | Activity direction (Decrease / Inactive) [4]: Inactive | Max Resp (signal direction of the dose response) ([5]; Method 1): Decrease | AC50 ([5]; Method 1, Hill fit, 50% of maximum activity response, read-out: AC50): 1.12 µM | Log AC50 (M) ([5]; Method 1, log10 of molar AC50 from Hill fit): -5.950 M | activity at 1 µM [5, 9]: 19.7% | activity at 1 µM [5, 10]: 20.4% | activity at 1 µM [5, 11]: 5.15% | activity at 3 µM [5, 12]: 4.48% | activity at 3 µM [5, 13]: 7.19% | activity at 3 µM [5, 14]: 3.33% | AC50 [5, 15]: 1 µM | AC50 [5, 16]: 1 µM | AC50 [6]: 0.243 µM

O=C(O)c1ccnc2cc(C(OCCN3CCC(F)(F)CC3)c3ccccc3Cl)[nH]c12 (stereo not drawn) [NCGC00414992-02]
AC50 [1]: 1.53e-05 M

CN(C)CCCN1CCCN(C(=O)c2cccc(-c3cc(O)c4ncccc4c3)c2)C1 [NCGC00247763-01]
AC50 [1]: 1.93e-05 M

COCCn1c(C)cc(O)c(C(c2ccc(OC)cc2)N2CCN(c3ccccc3)CC2)c1=O (stereo not drawn) [NCGC00133311-02]
AC50 [1]: 9.29e-06 M

Cc1nn2c(c1-c1ccccc1-c1ccccc1)N(CC1CC1)CCC2 [NCGC00420435-01]
CC50 at 48 h ([2]; HepG2 cells): 22.2 µM | HepG2 viability signal, 1 uM, repeat 2 [3, 8]: 101.46% | HepG2 viability signal, 3 uM, repeat 2 [3]: 45.92% | viability at 48 h, 1 µM [7]: 102% | viability at 48 h, 3 µM [7]: 53.6% | Activity direction (Decrease / Inactive) [4]: Inactive | activity at 1 µM [5, 9]: 52.9% | activity at 1 µM [5, 10]: 51.5% | activity at 1 µM [5, 11]: 66.1% | activity at 3 µM [5, 12]: 2.42% | activity at 3 µM [5, 13]: 7.19% | activity at 3 µM [5, 14]: 5.92% | AC50 [5, 15]: 1.58 µM | AC50 [5, 16]: 1.58 µM | AC50 [6]: 0.968 µM

COC(=O)c1ccc(OC(C)=O)c2ncccc12 [NCGC00187997-01]
AC50 [1]: 1.93e-05 M

O=C(Nc1ccccc1F)c1nc([S+](=O)([O-])Cc2ccccc2F)ncc1Cl [NCGC00117146-03]
AC50 [1]: 1.34e-05 M

O=C(O)c1ccnc2cc(C(OCCCC3CCCCN3)c3ccccc3Cl)[nH]c12 (stereo not drawn) [NCGC00479271-01]
AC50 [1]: 8.94e-06 M

CN(C)CCCNC(=O)c1cccc(-c2cc(O)c3nccc(C(=O)O)c3c2)c1 [NCGC00247762-01]
AC50 [1]: 2.25e-05 M

O=C(O)c1ccc(O)c2ncc(N3CCCCC3)cc12 [NCGC00241752-01]
AC50 [1]: 1.65e-05 M

CCOC(=O)c1ccnc(-n2ncc(C(=O)OCC)c2-c2ccc(OC)cc2)c1 [NCGC00421879-01]
AC50 [1]: 1.22e-05 M

O=C(O)c1ccnc2c(O)cccc12 [NCGC00183785-01]
AC50 [1]: 2e-05 M

O=C(O)c1ccnc2cc(C(OCCN3CCCCC3)c3ccccc3Cl)[nH]c12 (stereo not drawn) [NCGC00479257-01]
AC50 [1]: 1.89e-05 M

CC(C)c1ccc(CC(=O)N2CCCc3ncc(C(=O)Nc4cccnc4)cc32)cc1 [NCGC00420003-01]
CC50 at 48 h ([2]; HepG2 cells): 19.8 µM | HepG2 viability signal, 1 uM, repeat 2 [3, 8]: 94.19% | HepG2 viability signal, 3 uM, repeat 2 [3]: 54.54% | viability at 48 h, 1 µM [7]: 99% | viability at 48 h, 3 µM [7]: 35.6% | Activity direction (Decrease / Inactive) [4]: Inactive | Max Resp (signal direction of the dose response) ([5]; Method 1): Inactive | activity at 1 µM [5, 9]: 24.7% | activity at 1 µM [5, 10]: 4.89% | activity at 1 µM [5, 11]: 35.4% | activity at 3 µM [5, 12]: 3.66% | activity at 3 µM [5, 13]: 2.01% | activity at 3 µM [5, 14]: 4.19% | AC50 [6]: 0.863 µM
